The values below come from patent US8173645B2 (Takeda San Diego, Inc., priority 2007, dated 2012).

Some results are limits rather than exact numbers.

This experiment deals with T1, glucokinase (GK), residues 12-465 of the human enzyme (Homo sapiens, UniProt P35557).
T1 construct: I.D. No. 1 corresponds to residues 12-465 of glucokinase; made in house; host or cells: E. coli DH10b-Tlr
T1 sequence (P35557 with tags, fused parts or gaps isoform P35557-2): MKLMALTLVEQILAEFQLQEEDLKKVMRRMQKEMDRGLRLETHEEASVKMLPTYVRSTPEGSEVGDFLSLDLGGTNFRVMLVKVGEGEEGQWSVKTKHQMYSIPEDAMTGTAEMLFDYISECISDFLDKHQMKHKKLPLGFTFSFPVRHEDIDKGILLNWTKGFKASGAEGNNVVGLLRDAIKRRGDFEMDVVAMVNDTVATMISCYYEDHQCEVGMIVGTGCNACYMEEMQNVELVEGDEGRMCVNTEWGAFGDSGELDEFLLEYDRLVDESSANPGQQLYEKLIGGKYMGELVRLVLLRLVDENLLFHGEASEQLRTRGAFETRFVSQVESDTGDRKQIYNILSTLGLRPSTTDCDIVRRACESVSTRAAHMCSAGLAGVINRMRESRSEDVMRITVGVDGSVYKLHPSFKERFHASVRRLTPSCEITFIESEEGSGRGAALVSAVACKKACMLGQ
Nature of the experiment: Enzymatic glucokinase activity assay (KinaseGlo luminescence, ATP consumption). It is filed as biochemical. As to conditions: 5 μM ATP, 5 mM Glucose; for EC50: GK activation, Kact = concentration giving 50% of the maximal increase in GK activity, read-out: pKact; for Emax: calculated maximal gain in GK enzyme activity at a saturating concentration of the compound, read-out: % ACTmax. Summed up:
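C-terminally FLAG-tagged enzyme expressed in E. coli and purified. Reaction: 25 mM Hepes pH 7.2, 25 mM NaCl, 10 mM MgCl2, 0.01% Brij35, 1 mM DTT, 5 μM ATP, 5 mM glucose, 2% DMSO, 60 min at room temperature. Remaining ATP was read by luciferase luminescence; pKact and % ACTmax came from nonlinear fits of 11-point 2-fold dilutions.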

Consider `Cc1cc(S(=O)(=O)N2CCN([C@@H](CC3CCCCC3)C(=O)Nc3nccs3)C(=O)C2)c(C(F)(F)F)o1` [Example 160, (S)-3-cyclohexyl-2-(4-(5-methyl-2-(trifluoromethyl)furan-3-ylsulfonyl)-2-oxopiperazin-1-yl)-N-(thiazol-2-yl)propanamide], for which the EC50 lay in the range of 1.58 to 2.51 µM and the Emax was 108 to 119%.

As for `N#Cc1cccc(NC(=S)N2CCN([C@@H](CC3CCCCC3)C(=O)Nc3nccs3)C(=O)C2)c1` [Example 116, (S)-2-(4-(3-cyanophenylcarbamothioyl)-2-oxopiperazin-1-yl)-3-cyclohexyl-N-(thiazol-2-yl)propanamide], the EC50 is at least 3.16 µM and the Emax is at least 119%.

As for `Cc1cc(C)cc(S(=O)(=O)N2CCN([C@@H](CC3CCCCC3)C(=O)Nc3nccs3)C(=O)C2)c1` [Example 195, (S)-3-cyclohexyl-2-(4-(3,5-dimethylphenylsulfonyl)-2-oxopiperazin-1-yl)-N-(thiazol-2-yl)propanamide], the EC50 is at most 0.631 µM and the Emax is at least 119%.

On to `O=C(Nc1nccs1)[C@H](CC1CCCCC1)N1CCN2[C@@H](CCS2(=O)=O)C1=O` [Example 31, (S)-3-Cyclohexyl-N-thiazol-2-yl-2-((S)-1,1,4-trioxo-hexahydro-1λ*6*-thia-5,7a-diaza-inden-5-yl)-propionamide], for which the EC50 was at least 3.16 µM and the Emax is 74.1 to 97%.

For the molecule `O=C(Nc1nccs1)[C@H](CC1CCCCC1)N1CCN(S(=O)(=O)Cc2cccc(Cl)c2)CC1=O` [Example 63, (S)-2-(4-(3-chlorobenzylsulfonyl)-2-oxopiperazin-1-yl)-3-cyclohexyl-N-(thiazol-2-yl)propanamide], the EC50 lay within 1.58 to 2.51 µM and the Emax was 108 to 119%.

Take `O=C(Nc1ncc(Cl)s1)C(CC1CCCC1)N1CCN(S(=O)(=O)C2CC2)CC1=O` (stereo not drawn) [Example 16, N-(5-chlorothiazol-2-yl)-3-cyclopentyl-2-(4-(cyclopropylsulfonyl)-2-oxopiperazin-1-yl)propanamide]: the EC50 was at most 0.631 µM and the Emax is at least 119%.

`O=C(Nc1ncc(Cl)s1)[C@@H](CC1CCOCC1)N1CCN(S(=O)(=O)C2CC2)CC1=O` [Example 25, (R)-N-(5-chlorothiazol-2-yl)-2-(4-(cyclopropylsulfonyl)-2-oxopiperazin-1-yl)-3-(tetrahydro-2H-pyran-4-yl)propanamide]: the EC50 is at least 3.16 µM and the Emax is at most 74%.

In the case of `Cc1nn(C)c(Cl)c1S(=O)(=O)N1CCN([C@@H](CC2CCCCC2)C(=O)Nc2nccs2)C(=O)C1` [Example 47, (S)-2-(4-(5-chloro-1,3-dimethyl-1H-pyrazol-4-ylsulfonyl)-2-oxopiperazin-1-yl)-3-cyclohexyl-N-(thiazol-2-yl)propanamide], the EC50 is 1.58 to 2.51 µM and the Emax was 97.1 to 107%.

In the case of `O=C(Nc1nccs1)[C@H](CC1CCCCC1)N1CCN(C(=S)Nc2cccc3ccccc23)CC1=O` [Example 80, (S)-3-cyclohexyl-2-(4-(naphthalen-1-ylcarbamothioyl)-2-oxopiperazin-1-yl)-N-(thiazol-2-yl)propanamide], the EC50 lay within 1.58 to 2.51 µM and the Emax is 97.1 to 107%.

For the molecule `O=C(Nc1nccs1)[C@H](CC1CCCCC1)N1CCN(S(=O)(=O)c2ccc(-c3nsc(Cl)n3)s2)CC1=O` [Example 165, (S)-2-(4-(5-(5-chloro-1,2,4-thiadiazol-3-yl)thiophen-2-ylsulfonyl)-2-oxopiperazin-1-yl)-3-cyclohexyl-N-(thiazol-2-yl)propanamide], the EC50 lay in the range of 0.794 to 1.26 µM and the Emax is at most 74%.

With `Cc1cc(S(=O)(=O)N2CCN([C@@H](CC3CCCCC3)C(=O)Nc3nccs3)C(=O)C2)c(C)cc1Cl` [Example 186, (S)-2-(4-(4-chloro-2,5-dimethylphenylsulfonyl)-2-oxopiperazin-1-yl)-3-cyclohexyl-N-(thiazol-2-yl)propanamide], the EC50 is at most 0.631 µM and the Emax was at most 74%.

Turning to `O=C(Nc1nccs1)[C@H](CC1CCCCC1)N1CCN(S(=O)(=O)c2ccc3c(c2)CCO3)CC1=O` [Example 102, (S)-3-cyclohexyl-2-(4-(2,3-dihydrobenzofuran-5-ylsulfonyl)-2-oxopiperazin-1-yl)-N-(thiazol-2-yl)propanamide], the EC50 fell in the range of 0.794 to 1.26 µM and the Emax is 74.1 to 97%.

As to `Cc1cc(S(=O)(=O)N2CCN([C@@H](CC3CCCCC3)C(=O)Nc3nccs3)C(=O)C2)c(Cl)cc1Cl` [Example 221, (S)-3-cyclohexyl-2-(4-(2,4-dichloro-5-methylphenylsulfonyl)-2-oxopiperazin-1-yl)-N-(thiazol-2-yl)propanamide], the EC50 lay within 1.58 to 2.51 µM and the Emax is at most 74%.

As to `O=C(Nc1nccs1)[C@H](CC1CCCCC1)N1CCN(C(=S)Nc2cccc(C(F)(F)F)c2)CC1=O` [Example 84, (S)-3-cyclohexyl-2-(2-oxo-4-(3-(trifluoromethyl)phenylcarbamothioyl)piperazin-1-yl)-N-(thiazol-2-yl)propanamide], the EC50 is at least 3.16 µM and the Emax was 97.1 to 107%.

In the case of `O=C(Nc1nccs1)[C@H](CC1CCCCC1)N1CCN(S(=O)(=O)c2ccc(OC(F)F)cc2)CC1=O` [Example 70, (S)-3-cyclohexyl-2-(4-(4-(difluoromethoxy)phenylsulfonyl)-2-oxopiperazin-1-yl)-N-(thiazol-2-yl)propanamide], the EC50 was 1.58 to 2.51 µM and the Emax was 74.1 to 97%.

As for `COc1ccc(Oc2cccc(S(=O)(=O)N3CCN([C@@H](CC4CCCCC4)C(=O)Nc4nccs4)C(=O)C3)c2)cc1` [Example 228, (S)-3-cyclohexyl-2-(4-(3-(4-methoxyphenoxy)phenylsulfonyl)-2-oxopiperazin-1-yl)-N-(thiazol-2-yl)propanamide], the EC50 lay in the range of 0.794 to 1.26 µM and the Emax is at most 74%.

Take `Cc1n[nH]c(C)c1S(=O)(=O)N1CCN([C@@H](CC2CCCCC2)C(=O)Nc2nccs2)C(=O)C1` [Example 111, (S)-3-cyclohexyl-2-(4-(3,5-dimethyl-1H-pyrazol-4-ylsulfonyl)-2-oxopiperazin-1-yl)-N-(thiazol-2-yl)propanamide]: the EC50 is at least 3.16 µM and the Emax was at least 119%.

Turning to `O=C(Nc1nccs1)[C@H](CC1CCCCC1)N1CCN(C(=O)Nc2ccc(Cl)c(Cl)c2)CC1=O` [Example 131, (S)-4-(3-cyclohexyl-1-oxo-1-(thiazol-2-ylamino)propan-2-yl)-N-(3,4-dichlorophenyl)-3-oxopiperazine-1-carboxamide], the EC50 was at least 3.16 µM and the Emax was at most 74%.

With `CC(=O)Nc1nc(C)c(S(=O)(=O)N2CCN([C@@H](CC3CCCCC3)C(=O)Nc3nccs3)C(=O)C2)s1` [Example 197, (S)-2-(4-(2-acetamido-4-methylthiazol-5-ylsulfonyl)-2-oxopiperazin-1-yl)-3-cyclohexyl-N-(thiazol-2-yl)propanamide], the EC50 was at least 3.16 µM and the Emax is 97.1 to 107%.

As for `Cn1nc(-c2ccc(S(=O)(=O)N3CCN([C@@H](CC4CCCCC4)C(=O)Nc4nccs4)C(=O)C3)s2)cc1C(F)(F)F` [Example 175, (S)-3-cyclohexyl-2-(4-(5-(1-methyl-5-(trifluoromethyl)-1H-pyrazol-3-yl)thiophen-2-ylsulfonyl)-2-oxopiperazin-1-yl)-N-(thiazol-2-yl)propanamide], the EC50 was at least 3.16 µM and the Emax was at most 74%.

Take `O=C(Nc1nccs1)[C@H](CC1CCCCC1)N1CCN(S(=O)(=O)c2ccccc2)CC1=O` [Example 79, (S)-3-cyclohexyl-2-(2-oxo-4-(phenylsulfonyl)piperazin-1-yl)-N-(thiazol-2-yl)propanamide]: the EC50 is at most 0.631 µM and the Emax was 97.1 to 107%.

As for `CC(=O)N1CCC(CC(C(=O)Nc2nccs2)N2CCN(S(=O)(=O)C3CC3)CC2=O)C1` (stereo not drawn) [Example 20, 3-(1-acetylpyrrolidin-3-yl)-2-(4-(cyclopropylsulfonyl)-2-oxopiperazin-1-yl)-N-(thiazol-2-yl)propanamide], the EC50 lay within 0.794 to 1.26 µM and the Emax is 108 to 119%.

Take `Cn1nc(C(F)(F)F)cc1-c1ccc(S(=O)(=O)N2CCN([C@@H](CC3CCCCC3)C(=O)Nc3nccs3)C(=O)C2)s1` [Example 193, (S)-3-cyclohexyl-2-(4-(5-(1-methyl-3-(trifluoromethyl)-1H-pyrazol-5-yl)thiophen-2-ylsulfonyl)-2-oxopiperazin-1-yl)-N-(thiazol-2-yl)propanamide]: the EC50 was at most 0.631 µM and the Emax was at most 74%.

In the case of `Cc1c(S(=O)(=O)N2CCN([C@@H](CC3CCCCC3)C(=O)Nc3nccs3)C(=O)C2)cnn1-c1ccccc1` [Example 163, (S)-3-cyclohexyl-2-(4-(5-methyl-1-phenyl-1H-pyrazol-4-ylsulfonyl)-2-oxopiperazin-1-yl)-N-(thiazol-2-yl)propanamide], the EC50 lay in the range of 1.58 to 2.51 µM and the Emax is at most 74%.
